According to patent US6656734B1, “Compositions for the delivery of polynucleotides to cells” (Transgene S.A., priority 1997, dated 2003):
Entries after “also recorded” stand apart in the source; their conditions may differ.

What was measured:
pulmonary cells = assay: Luciferase activity in lungs of mice after intratracheal injection of plasmid/polar compound compositions; assay type: in vivo; settings: B6/SJLF1 mice
Experimental: The chosen polynucleotide, i.e. the plasmid pTG11033 (FIG. 1), encompasses the gene encoding luciferase placed under the control of the CMV promoter, intron 1 of the HMG gene and the SV40 polyA termination signal. The plasmid DNA contained in 250 μl of a 1 mg/ml solution of purified plasmid (purified by centrifugation in a cesium chloride gradient) is precipitated with ethanol. After having been centrifuged, washed with 70% ethanol and dried, the nucleic acid pellet is taken up in a given volume of DESO or DPSO and of 20 mM Hepes buffer, pH 7.5, in order to give the following compositions as shown in Table I below: The 8-week-old female mice (B6/SJLF1, Iffa Credo) were anaesthetized by means of intraperitoneal injection (physiological saline, […] 1000, xylazine/ROMPUN). […] Each composition is injected into at least three different mice. The expression levels are compared with those obtained after injecting 50 μg of DNA in 50 μl of 20 mM Hepes, pH 7.5, without any addition of polar compound. A control in which the mice are not injected is also included in the protocol. The mice are sacrificed two days after the injections. The lungs and the trachea are treated independently. The tissues are frozen in liquid nitrogen and stored at -80° C. In order to measure the luciferase activity, the tissues are ground up mechanically using a pestle in a mortar which is placed on dry ice. 500 μl or 200 μl of a lysis buffer (Promega) are added to the tissue fragments obtained from the lungs or the trachea, respectively, and the solution is subjected to three steps of freezing/thawing. The cell debris is removed by centrifugation and the luciferase activity (in RLU/min, relative light unit per minute) is measured on 20 μl of supernatant, in accordance with the supplier's (Promega) instructions, by adding 100 μl of reagent and measuring the activity by means of luminescence. The luciferase activity which is measured is standardized in relation to the quantity of protein with the aid of a standard scale which is generated using commercially available luciferase (Promega). […]

plasmid DNA (pTG11033) = assay: Plasmid DNA melting curves; assay type: physicochemical; settings: 50 μg/ml pTG11033 in 20 mM HEPES pH 7.5, 0-20% DPSO, 35-100° C., 260 nm; versus DNA alone
Experimental: Plasmid DNA melting curves were recorded on a thermostated UV/Visible CARY/VARIAN spectrophotometer (sofware version: 3.04) using 2 quartz cuvettes (L=1cm) with Teflon stopper.

airways cell = assay: Theophylline pretreatment before airway delivery of a composition comprising DPSO; assay type: in vivo; settings: oral 0.3 mg theophylline to mice about 30 min before composition comprising DPSO
Text: Finally, the invention relates to a cell which is transfected with a composition as previously defined, in particular a prokaryotic cell, or a yeast or eukaryotic cell, in particular an animal cell, in particular a mammalian cell, more especially a cancerous cell. According to a preferred embodiment of the invention, the said cell is an airways cell, more especially a tracheal or pulmonary cell, advantageously a cell of the respiratory epithelium. In the case of airway delivery, prior administration of bronchodilator compounds (for example, theophylline) could be advantageous.

| Absorbance change upon DNA melting (plasmid DNA (pTG11033)) | temperature at which absorbance change (DNA melting) occurs (plasmid DNA (pTG11033)) | SMILES | measured level of expression of the luciferase-encoding gene on increasing the percentage of the compound (pulmonary cells; 50 μg DNA, FIG. 4) | expression of the luciferase gene in the pulmonary tissues (pulmonary cells; 50 μg DNA/50 μl, 15% (v/v) polar compound, sacrificed two days after injection, compared with polynucleotide alone) | transfection of the pulmonary cells (luciferase expression) (pulmonary cells; 50 μg pTG11033/50 μl, 10 or 15% polar compound, compared with polynucleotide on its own) | expression level compared with administration without pretreatment (airways cell) |
| --- | --- | --- | --- | --- | --- | --- |
| lowered | higher temperature | CCC[S+]([O-])CCC [DPSO, di-n-propyl sulphoxide] | improve the measured level of expression | increases expression; also recorded: markedly improved | best results | – |
| – | – | Cn1c(=O)c2[nH]cnc2n(C)c1=O [theophylline] | – | – | – | slightly increase of the expression level |
